Here are results for one compound from patent US20090291857A1, “METHODS TO IDENTIFY INHIBITORS OF THE UNFOLDED PROTEIN RESPONSE” (THE BOARD OF TRUSTEES OF THE LELAND STANFORD JUNIOR …, priority 2006, published 2009).

This assay has as its system HT1080 cells. Nature of the assay: Clonogenic survival / colony formation assay, HT1080. The following applies: 2.5 μM. It is filed as cell-based, human. The protocol: Several of the candidate irestatins were tested in a hypoxia clonogenic survival assay. […] HT1080 fibrosarcoma cells stably were treated with 1 uM of the indicated irestatin or left untreated, and incubated in hypoxia (0.01% oxygen) for 48 hrs at 37° C. Cells were harvested and counted, and allowed to form colonies under normal oxygen tension. Survival rate is expressed as the fraction of colonies formed divided by the total number of cells seeded for each condition. For all experiments, cells were plated in triplicate, and all experiments were repeated at least three times. These experiments were repeated using MiaPaCa2 cells in place of the HT 1080 fibrosarcoma cells.
For hypoxia survival assays, cells were grown in 60 mm dishes until reaching at 50-70% confluence and shifted to hypoxia (0.1% O2) for 48 hrs. Cells were trypsinized, counted using a hemocytometer, and replated in triplicate at 1,000-20,000 cells per plate in normal culture medium. After 10-12 days of growth under normal oxygen conditions, colonies were stained with 0.2% crystal violet in ethanol and counted. Survival values are expressed as the number of colonies divided by the total number of cells seeded for each condition, normalized to the plating efficiency under normal oxygen conditions. […]
A. Effect of irestatin 9389 on PERK and ATF6 pathways. […] D. Quantification of clonogenic survival assay. […]

Take `Cc1csc(NC(=O)CSc2nc3c(c(C(F)(F)F)c2C#N)CCC3)n1` [Compound 9389]: the “colony formation after hypoxia” value (hypoxia 48 hours) is listed as “strongly inhibited colony formation”. Further, where the note is “normal oxygen conditions”, the “survival of HT1080 cells under normal oxygen” value is reported as “negligible effect”.
